Laboratory results as given in ChEMBL document CHEMBL3856238, “Synthesis of novel nicotinohydrazide and (1,3,4-oxadiazol-2-yl)-6-(trifluoromethyl)pyridine derivatives as potential anticancer agents” (Bioorg Med Chem Lett, 2016).

What was measured:
Type in all cases: functional, cell-based
[1] = Cytotoxicity against human HeLa cells assessed as cell growth inhibition by MTT assay
[2] = Cytotoxicity against human DU145 cells assessed as cell growth inhibition by MTT assay; conditions: DU-145
[3] = Cytotoxicity against human HepG2 cells assessed as cell growth inhibition by MTT assay
[4] = Cytotoxicity against human MDA-MB-231 cells assessed as cell growth inhibition by MTT assay

Row | SMILES | IC50 [1] [µM] | IC50 [2] [µM] | IC50 [3] [µM] | IC50 [4] [µM]
1 | CCc1nnc(-c2ccc(C(F)(F)F)nc2Nc2cccc(F)c2)o1 | 20.9 | 22.2 | 26.4 | 18.7
2 | CCc1nnc(-c2ccc(C(F)(F)F)nc2Nc2cc(OC)c(OC)c(OC)c2)o1 | 23.3 | 22.1 | 19.9 | 20.5
3 | COc1ccc(-c2nnc(-c3ccc(C(F)(F)F)nc3N)o2)cc1 | 14.8 | 10.7 | 11.2 | 13.5
4 | FC(F)(F)c1ccc(-c2nnc(-c3ccco3)o2)c(NCc2ccco2)n1 | 9.8 | 8.2 | 9.5 | 8.7
5 | CCCc1nnc(-c2ccc(C(F)(F)F)nc2Nc2cccc(F)c2)o1 | 19.6 | 18.9 | 17.7 | 13.5
6 | O=c1[nH]cc(F)c(=O)[nH]1 [FLUOROURACIL] | 1.9 | 1.6 | 1.3 | 1.8
7 | O=C(N/N=C/c1ccccc1)c1ccc(C(F)(F)F)nc1NCc1ccco1 | 31.4 | 30.5 | 32.2 | 26.6
